Earlier results, collected in Sander's compilation of Henry's law constants.

Test: Henry solubility constant Hcp at 298.15 K (mol/(m3 Pa))
Conditions: reference: Schüürmann (2000); cited value

Which “Henry solubility constant Hcp” value does the source give for `O=[N+]([O-])c1ccccc1` [nitrobenzene] here?
The value was 0.41.

For `Clc1ccc(Cl)cc1` [1,4-dichlorobenzene], which “Henry solubility constant Hcp” value is on record?
The value was 0.0041.

With `O=Cc1ccccc1` [benzaldehyde] as the compound, how does the “Henry solubility constant Hcp” value read?
The value was 0.37.

Which “Henry solubility constant Hcp” value does the source give for `Cc1ccccc1O` [1-hydroxy-2-methylbenzene] here?
Its value is 8.3.

For `Cc1ccc(C)cc1` [1,4-dimethylbenzene], which “Henry solubility constant Hcp” value is on record?
The value was 0.0013.

For `Cc1ccc(O)cc1` [1-hydroxy-4-methylbenzene], which “Henry solubility constant Hcp” value is on record?
Its value is 13.

Which “Henry solubility constant Hcp” value does the source give for `Brc1ccccc1` [bromobenzene] here?
The value was 0.004.

For `c1ccccc1` [benzene], which “Henry solubility constant Hcp” value is on record?
The value was 0.0018.

With `Clc1ccccc1` [chlorobenzene] as the compound, how does the “Henry solubility constant Hcp” value read?
The value was 0.0027.

For `Sc1ccccc1` [benzenethiol], which “Henry solubility constant Hcp” value is on record?
The value was 0.03.

With `COc1ccccc1` [methoxybenzene] as the compound, how does the “Henry solubility constant Hcp” value read?
The value was 0.069.

For `Cc1ccccc1` [methylbenzene], which “Henry solubility constant Hcp” value is on record?
The value was 0.0015.

With `CC(=O)c1ccccc1` [1-phenylethanone] as the compound, how does the “Henry solubility constant Hcp” value read?
Its value is 0.93.
